Source: patent US20220079915A1, “IMMUNOSUPPRESSIVE PHARMACEUTICAL COMPOSITION AND APPLICATION THEREOF” (Shanghai Archeus Biotech Co., Ltd., priority 2018, published 2022)

Key:
[1] = tested on: mouse psoriasis model induced by Imiquimod; experiment: Mouse psoriasis model induced with imiquimod; assay type: in vivo; conditions: for relieving of inflammatory thickening of the model right ear: end point of 7-day administration
Experimental: Animal strain: 28 male BALB/c mice, 6-8 weeks old, SPF environment, 12 hours light and dark cycle, 24-26 degrees Celsius. Blank group: no treatment, n=3; […] High-dose compound test group: 3.5 mg/kg drug intraperitoneal injection+5% imiquimod ointment, n=5; Low-dose compound test group: 0.8 mg/kg drug intraperitoneal injection+5% imiquimod ointment, n=5; Combined drugs test group: 0.8 mg/kg drug intraperitoneal injection+0.0025% PGE2 (administered epidermally in 75% ethanol)+5% imiquimod ointment, n=5; Day 0: anesthetized the mouse, shaved the back with an area about 2*3 cm; Day1-7: every other day, measured the mouse body weight, left and right ear thickness, and observed the skin to obtain a score; Day7: killed the mouse, sampled the back skin and fixed in 4% PFA solution for H&E staining; Model Group Induced with Imiquimod: Day 0: anesthetized the mouse, shaved the back with an area about 2*3 cm; Day1-7: every other day, measured the mouse body weight, left and right ear thickness, and observed the skin to obtain a score; […] Massaged moderately against the direction of the hair to help absorption; Day1-7: […] Massaged moderately against the direction of the hair to help absorption; Day7: killed the mouse, sampled the back skin and fixed in 4% PFA solution for H&E staining; Day 0: anesthetized the mouse, shaved the back with an area about 2*3 cm; Day1-7: every other day, measured the mouse body weight, left and right ear thickness, and observed the skin to obtain a score; […] Day1-7: then injected intraperitoneally 3.5 mg/kg in 200 μL sterile DPBS; Day1-7: then applied 62.5 mg of imiquimod ointment on the shaved area on the back of each mouse, applied 250 μg of imiquimod ointment on the inside and outside of the right ear, and massaged moderately against the direction of hair to help absorption; Day7: killed the mouse, sampled the back skin and fixed in 4% PFA solution for H&E staining; Day 0: anesthetized the mouse, shaved the back with an area about 2*3 cm; Day1-7: every other day, measured the mouse body weight, left and right ear thickness, and observed the skin to obtain a score; […] Day1-7: then injected intraperitoneally 0.8 mg/kg in 200 μL sterile DPBS; Day1-7: then applied 62.5 mg of imiquimod ointment on the shaved area on the back of each mouse, applied 250 μg of imiquimod ointment on the inside and outside of the right ear, and massaged moderately against the direction of hair to help absorption; Day7: killed the mouse, sampled the back skin and fixed in 4% PFA solution for H&E staining; Group Treated with Compound in Combination with PGE2: Day 0: anesthetized the mouse, shaved the back with an area about 2*3 cm; Day1-7: every other day, measured the mouse body weight, left and right ear thickness, and observed the skin to obtain a score; Day1-7: […] Day-7: then injected intraperitoneally 0.8 mg/kg in 200 μL sterile DPBS; Day1-7: one hour after PGE2 administration, applied 62.5 mg of imiquimod ointment on the shaved area on the back of each mouse, and applied 250 μg of imiquimod ointment on the inside and outside of the right ear. […] The area was fixed in the disease model and was not considered, and the other three aspects were quantified as follows: 0=asymptomatic, 1=mild, 2=moderate, 3=significant, 4=very significant; Changes of the thickening of the ear; Body weight; Skin histological changes (H&E staining).

[2] = tested on: IL-17A; experiment: IL-17A secretion of mouse spleen Naïve CD4+ T cells induced to differentiate to Th17 cells by cytokines, ELISA; assay type: cell-based
Experimental: 1) Pre-coated the 96-well plate with 2 μg/mL anti-mouse CD3e and incubated overnight at 4 degrees Celsius: 2) Separated fresh spleens from adult C57BL/6 female mice (8-12 weeks old), ground and filtered through a […] nylon cell strainer to obtain a single cell suspension in pre-cooled DPBS; 3) Washed the spleen cells again with DPBS, and resuspended in RoboSep™ buffer at a density of 1×10^8/mL; 4) Separated primary CD4+ T cells with mouse primary CD4+ T cell isolation kit as required by the kit; 5) Resuspended the isolated CD4+ T cells in complete medium (RPMI 1640 medium+10% inactivated FBS+1% double antibiotics) at a density of 1×10^6/mL; 6) Washed the 96-well plate pre-coated with anti-mouse CD3e twice with DPBS, added 50 μL of cytokine cocktail, the composition and final concentration of which are shown in Table 6 below, and then added 50 μL of compound solution (the final concentration of DMSO was 0.1%). Added 100 μL of cell suspension to each well to allow the final cell number per well to be 1×10^5/100 μL; [table] 7) Cultured the cells for 7 days under the above conditions. The culture conditions were 37 degrees Celsius, 5% CO2 concentration; 8) After 7 days, added 1× stimulation cocktail (eBioscience 500X) to the culture medium for 4 hours, and then collected cell culture supernatant for detection with IL-17A enzyme-linked immunoassay kit; 9) Completed the detection of supernatant IL-17A concentration with mouse IL-17 DuoSet ELISA kit; 10) Read the OD450 nm absorbance value with a microplate reader, and generated the standard curve by using the 4-parameter logistic fitting (4-PL) method. 1) Diluted the capture antibody (provided in the kit) to a working concentration in PBS without carrier protein, that is, a 96-well plate can be coated with 100 microliters per well. Sealed and incubated the plate overnight at room temperature; 2) Aspirated the coating buffer of the well plate, and eluted with 400 microliters of eluent (provided in the kit) for three times, aspirating as much liquid as possible each time; 3) Added 300 microliters of diluent (provided in the kit) to each well, and equilibrated for 1 hour at room temperature; 4) Eluted the well plate as in the above step 2) to be ready for the addition of sample; ) Added 100 microliters of sample or standard to each well containing the added diluent, and sealed and incubated the well plate for 2 hours at room temperature; 6) Eluted the well plate as in the above step 2); 7) Added 100 microliters of detector antibody (provided in the kit) to each well, and sealed and incubated the well plate for 2 hours at room temperature. 8) Eluted the well plate as in the above step 2); 9) Added 100 microliters of Streptavidin-HRP working solution (provided in the kit) to each well, and sealed and incubated the well plate in dark for 20 minutes at room temperature. 10) Eluted the well plate as in the above step 2); 11) Added 100 microliters of reaction substrate solution (provided in the kit) to each well, and incubated at room temperature for 20 minutes, protected from light: 12) Added 50 microliters of stop solution (provided in the kit) to each well, and tapped the well plate to ensure that the liquid is evenly mixed; 13) Detected the optical density value of each well at […]. The values could be corrected by deducting the values at 540 nm or 570 nm.

[3] = high-dose group 3.5 mg/kg intraperitoneal
[4] = low-dose group 0.8 mg/kg intraperitoneal

## C=C[C@@]1(C)CC(=O)C2(O)[C@@]3(C)C(O)CCC(C)(C)C3[C@H](OC(=O)CCN(C)C)[C@H](OC(C)=O)[C@@]2(C)O1.Cl (stereo partly shown) [6-[3-(dimethylamino)propionyl]forskolin hydrochloride]
[1]; day 7, compared with the model group, FIG. 20
  thickness of epidermis and stratum corneum of back skin (H&E staining): different degrees of thickness reduction
[1]; [3]
  day of administration on which disease alleviation showed (back skin psoriasis-like index score): 3 days
  relieving of inflammatory thickening of the model right ear: 39%
[1]; [4]
  day of administration on which the effect began (back skin psoriasis-like index score): 5 days
  relieving of inflammatory thickening of the model right ear: 30%
[2]; 0.5 μM alone
  IL-17A level, % of the positive control: 88%
[2]; 0.5 μM used alone
  reduction in IL-17A levels: 12%
[2]; 1 μM alone
  IL-17A level, % of the positive control: 19%
[2]; 1 μM compound alone, FIG. 10
  IL-17A, % of the basic level: 18%
[2]; Mus musculus, CD4+ T, 168 h, 10 μM, 7 days cytokine induction, FIG. 8, read-out: inhibition of the positive control IL-17A level
  inhibition at 10 µM: ~97%
[2]; Mus musculus, CD4+ T, 1 μM alone, FIG. 10, read-out: reduction in IL-17A levels (inhibitory effect)
  inhibition at 1 µM: 81%
[2]; Table 7, relative to control, 0.5 μM
  IL-17A treatment value, A: 88%
[2]; Table 8, relative to control, 0.5 μM
  IL17-A treatment value, A: 88%
